Values quoted from earlier work, collected in patent US6676926B2, “Radiopharmaceuticals for diagnosing Alzheimer's disease” (Schering Aktiengesellschaft, priority 2000, dated 2004).

Legend:
[1] = normal mice
synthetic-amyloid = details: in vitro

O=C(O)c1cc(/N=N/c2ccc(-c3ccc(/N=N/c4ccc(O)c(C(=O)O)c4)cc3)cc2)ccc1O [Chrysamine G]
blood-brain barrier passage [1]: crosses the blood-brain barrier
binding to synthetic amyloid (synthetic-amyloid): binds synthetic-amyloid well
